# Tests used:
# HCT116 WT cells = experiment: HCT116 WT cell proliferation / viability (CellTiter-Glo, 6 days); format: cell-based; settings: Homo sapiens, HCT-116, 144 h, HCT116 WT cells, 6 days, CellTiter-Glo; read-out: HCT-116 WT IC50
# How it was run: (§1)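 CellTiter-Glo luminescence, 6-day exposure, RPMI 1640 + 10% FBS. Dosing: 1:3 series (8-9 pts, top 1 or 10 μM) or 1:2 series (22 pts, top 10 or 50 μM), DMSO control. IC50 = 50% of control via curve fit.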
# HCT116 MTAP null cells = experiment: HCT116 MTAP null cell proliferation / viability (CellTiter-Glo, 6 days); format: cell-based; settings: HCT116-MTAP null, 144 h, HCT116 MTAP null cells, 6 days, CellTiter-Glo; read-out: HCT-116 MTAP null IC50
# How it was run: as §1
IC50 (HCT116 WT cells) [µM],IC50 (HCT116 MTAP null cells) [µM],Compound
1.19,0.022,"C[C@H](c1cnc(C(F)(F)F)cn1)N(C)C(=O)c1cc2c(cc1F)nc(N)c1cnn(C)c12 [Example 780, 4-amino-7-fluoro-N,1-dimethyl-N-((1R)-1-(5-(trifluoromethyl)-2-pyrazinyl)ethyl)-1H-pyrazolo[4,3-c]quinoline-8-carboxamide]"
1.31,0.037,"CCN(C(=O)c1cc2c3c(c(N)nc2cc1F)COC3)[C@H](C)c1ccc(C(F)(F)F)nn1 [Example 781, 4-amino-N-ethyl-7-fluoro-N-((1R)-1-(6-(trifluoromethyl)-3-pyridazinyl)ethyl)-1,3-dihydrofuro[3,4-c]quinoline-8-carboxamide]"
7.77,0.08,"CN(Cc1ccc(C(F)(F)F)nc1F)C(=O)c1cc2c(cc1F)nc(N)c1cnn(C)c12 [Example 782, 4-amino-7-fluoro-N-((2-fluoro-6-(trifluoromethyl)-3-pyridinyl)methyl)-N,1-dimethyl-1H-pyrazolo[4,3-c]quinoline-8-carboxamide]"
16.4,0.868,"CCN(C(=O)c1ccc2nc(N)c3c(c2c1)COC3)[C@@H](c1ccc(C(F)(F)F)nn1)C1CC1 [Example 783, 4-amino-N-((R)-cyclopropyl(6-(trifluoromethyl)-3-pyridazinyl)methyl)-N-ethyl-1,3-dihydrofuro[3,4-c]quinoline-8-carboxamide]"
0.609,0.022,"CCN(C(=O)c1cc2c3c(c(N)nc2cc1F)[C@@H](C)OC3)[C@H](C)c1ccc(C(F)(F)F)nn1 [Example 784, (3R)-4-amino-N-ethyl-7-fluoro-3-methyl-N-((1R)-1-(6-(trifluoromethyl)-3-pyridazinyl)ethyl)-1,3-dihydrofuro[3,4-c]quinoline-8-carboxamide]"
19.8,0.851,"CCN(C(=O)c1cc2c3c(c(N)nc2cc1F)[C@H](C)OC3)[C@H](C)c1ccc(C(F)(F)F)nn1 [Example 785, (3S)-4-amino-N-ethyl-7-fluoro-3-methyl-N-((1R)-1-(6-(trifluoromethyl)-3-pyridazinyl)ethyl)-1,3-dihydrofuro[3,4-c]quinoline-8-carboxamide]"
7.33,0.126,"C[C@H](c1ccc(C(F)(F)C(F)(F)F)cc1)N(C)C(=O)c1cc2c(cn1)nc(N)c1c2cnn1C [Example 786, 4-amino-N,3-dimethyl-N-((1R)-1-(4-(pentafluoroethyl)phenyl)ethyl)-3H-pyrazolo[3,4-c][1,7]naphthyridine-8-carboxamide]"
8.97,0.865,"C[C@@H](c1ccc(C(F)(F)C(F)(F)F)cc1)N(C)C(=O)c1cc2c(cc1F)nc(N)c1cnn(C)c12 [Example 787, 4-amino-7-fluoro-N,1-dimethyl-N-((1S)-1-(4-(pentafluoroethyl)phenyl)ethyl)-1H-pyrazolo[4,3-c]quinoline-8-carboxamide]"
0.134,0.008,"C[C@H](c1ccc(C(F)(F)C(F)(F)F)cc1)N(C)C(=O)c1cc2c(cc1F)nc(N)c1cnn(C)c12 [Example 788, 4-amino-7-fluoro-N,1-dimethyl-N-((1R)-1-(4-(pentafluoroethyl)phenyl)ethyl)-1H-pyrazolo[4,3-c]quinoline-8-carboxamide]"
6.93,0.083,"CN(Cc1ccc(-c2cnn(C(F)(F)F)c2)cn1)C(=O)c1cc2c(cc1F)nc(N)c1cnn(C)c12 [Example 789, 4-amino-7-fluoro-N,1-dimethyl-N-((5-(1-(trifluoromethyl)-1H-pyrazol-4-yl)-2-pyridinyl)methyl)-1H-pyrazolo[4,3-c]quinoline-8-carboxamide]"
47.1,0.776,"Cn1ncc2c(N)nc3ccc(C(=O)N(Cc4ccc(C(F)(F)F)nn4)C4CC4)cc3c21 [Example 790, 4-amino-N-cyclopropyl-1-methyl-N-((6-(trifluoromethyl)-3-pyridazinyl)methyl)-1H-pyrazolo[4,3-c]quinoline-8-carboxamide]"
0.341,0.011,"CN(Cc1ccc(C(F)(F)F)cn1)C(=O)c1cc2c(cc1Cl)nc(N)c1cnn(C)c12 [Example 791, 4-amino-7-chloro-N,1-dimethyl-N-((5-(trifluoromethyl)-2-pyridinyl)methyl)-1H-pyrazolo[4,3-c]quinoline-8-carboxamide]"
2.33,0.03,"CN(Cc1ccc(C(F)(F)F)nn1)C(=O)c1cc2c(cc1Cl)nc(N)c1cnn(C)c12 [Example 792, 4-amino-7-chloro-N,1-dimethyl-N-((6-(trifluoromethyl)-3-pyridazinyl)methyl)-1H-pyrazolo[4,3-c]quinoline-8-carboxamide]"
0.296,0.011,"CCN(Cc1ccc(C(F)(F)F)cn1)C(=O)c1cc2c(cc1Cl)nc(N)c1cnn(C)c12 [Example 793, 4-amino-7-chloro-N-ethyl-1-methyl-N-((5-(trifluoromethyl)-2-pyridinyl)methyl)-1H-pyrazolo[4,3-c]quinoline-8-carboxamide]"
0.499,0.02,"CCN(Cc1ccc(C(F)(F)F)nn1)C(=O)c1cc2c(cc1Cl)nc(N)c1cnn(C)c12 [Example 794, 4-amino-7-chloro-N-ethyl-1-methyl-N-((6-(trifluoromethyl)-3-pyridazinyl)methyl)-1H-pyrazolo[4,3-c]quinoline-8-carboxamide]"
0.379,0.008,"Cn1ncc2c(N)nc3cc(Cl)c(C(=O)N(Cc4ccc(C(F)(F)F)cn4)C4CC4)cc3c21 [Example 795, 4-amino-7-chloro-N-cyclopropyl-1-methyl-N-((5-(trifluoromethyl)-2-pyridinyl)methyl)-1H-pyrazolo[4,3-c]quinoline-8-carboxamide]"
1.67,0.034,"Cn1ncc2c(N)nc3cc(Cl)c(C(=O)N(Cc4ccc(C(F)(F)F)nn4)C4CC4)cc3c21 [Example 796, 4-amino-7-chloro-N-cyclopropyl-1-methyl-N-((6-(trifluoromethyl)-3-pyridazinyl)methyl)-1H-pyrazolo[4,3-c]quinoline-8-carboxamide]"
0.755,0.041,"Cn1ncc2c(N)nc3ccc(C(=O)N(Cc4ccc(C(F)(F)F)cn4)CC(F)(F)F)cc3c21 [Example 797, 4-amino-1-methyl-N-(2,2,2-trifluoroethyl)-N-((5-(trifluoromethyl)-2-pyridinyl)methyl)-1H-pyrazolo[4,3-c]quinoline-8-carboxamide]"
0.152,0.01,"Cn1ncc2c(N)nc3cc(Cl)c(C(=O)N(Cc4ccc(C(F)(F)F)cn4)C4CCC4)cc3c21 [Example 798, 4-amino-7-chloro-N-cyclobutyl-1-methyl-N-((5-(trifluoromethyl)-2-pyridinyl)methyl)-1H-pyrazolo[4,3-c]quinoline-8-carboxamide]"
0.263,0.008,"Cn1ncc2c(N)nc3cc(Cl)c(C(=O)N(Cc4ccc(C(F)(F)F)nn4)C4CCC4)cc3c21 [Example 799, 4-amino-7-chloro-N-cyclobutyl-1-methyl-N-((6-(trifluoromethyl)-3-pyridazinyl)methyl)-1H-pyrazolo[4,3-c]quinoline-8-carboxamide]"
0.245,0.007,"Cn1ncc2c(N)nc3cc(F)c(C(=O)N(Cc4ccc(C(F)(F)F)cn4)CC(F)(F)F)cc3c21 [Example 800, 4-amino-7-fluoro-1-methyl-N-(2,2,2-trifluoroethyl)-N-((5-(trifluoromethyl)-2-pyridinyl)methyl)-1H-pyrazolo[4,3-c]quinoline-8-carboxamide]"
13.6,0.153,"Cn1ncc2c(N)nc3cc(F)c(C(=O)N(Cc4cocn4)C4CCC4)cc3c21 [Example 801, 4-amino-N-cyclobutyl-7-fluoro-1-methyl-N-(1,3-oxazol-4-ylmethyl)-1H-pyrazolo[4,3-c]quinoline-8-carboxamide]"
1.38,0.021,"CN(Cc1ccc(C(F)(F)F)cn1)C(=O)c1cc2c(cc1F)nc(N)c1cnn(C)c12 [Example 802, 4-amino-7-fluoro-N,1-dimethyl-N-((5-(trifluoromethyl)-2-pyridinyl)methyl)-1H-pyrazolo[4,3-c]quinoline-8-carboxamide]"
0.384,0.012,"Cn1ncc2c(N)nc3cc(F)c(C(=O)N(Cc4ccc(C(F)(F)F)cn4)C4CC4)cc3c21 [Example 803, 4-amino-N-cyclopropyl-7-fluoro-1-methyl-N-((5-(trifluoromethyl)-2-pyridinyl)methyl)-1H-pyrazolo[4,3-c]quinoline-8-carboxamide]"
1.8,0.026,"Cn1ncc2c(N)nc3cc(F)c(C(=O)N(Cc4ccc(C(F)(F)F)nn4)C4CC4)cc3c21 [Example 804, 4-amino-N-cyclopropyl-7-fluoro-1-methyl-N-((6-(trifluoromethyl)-3-pyridazinyl)methyl)-1H-pyrazolo[4,3-c]quinoline-8-carboxamide]"
0.121,0.008,"CC(C)N(Cc1ccc(C(F)(F)F)cn1)C(=O)c1cc2c(cc1F)nc(N)c1cnn(C)c12 [Example 805, 4-amino-7-fluoro-1-methyl-N-(2-propanyl)-N-((5-(trifluoromethyl)-2-pyridinyl)methyl)-1H-pyrazolo[4,3-c]quinoline-8-carboxamide]"
3.16,0.056,"COc1nc(C(F)(F)F)ccc1CN(C)C(=O)c1cc2c(cc1F)nc(N)c1cnn(C)c12 [Example 806, 4-amino-7-fluoro-N-((2-methoxy-6-(trifluoromethyl)-3-pyridinyl)methyl)-N,1-dimethyl-1H-pyrazolo[4,3-c]quinoline-8-carboxamide]"

# Source: patent US20240101570A1 (AMGEN INC., priority 2020, published 2024)
